Source: patent US20250057764A1, “COMPOSITIONS, METHODS AND SYSTEMS FOR AEROSOL DRUG DELIVERY” (ASTRAZENECA AB, priority 2021, published 2025)
Structures can show the parent of a compound that is named as a salt. Where two headings read alike, the source gives them in different places.

Assays:
[1] = Particle size distribution by laser diffraction; format: physicochemical
Description: When referred to herein, the term “optical diameter” indicates the size of a particle as measured by the Fraunhofer diffraction mode using a laser diffraction particle size analyzer equipped with a dry powder dispenser (e.g., Sympatec GmbH, Clasthal-Zellerfeld, Germany).
Suspending particles were manufactured by spray drying an emulsion of PFOB (perfluorooctyl bromide) and water stabilized by DSPC (1,2-Distearoyl-sn-Glycero-3-Phosphocholine). Detailed preparation procedures have been documented previously. The particle size distribution of the suspending particles was determined by laser diffraction.
Active agent particles formed of budesonide, 16,17-(butylidenebis(oxy))-11,21-dihydroxy-, (11-β,16-α)-pregna-1,4-diene-3,20-dione, were formed by micronizing budesonide using a jet mill. The particle size distribution of the budesonide (BD) was determined by laser diffraction.

[2] = Aerodynamic particle size distribution by NGI (FPF, FPD, MMAD) of HFC-152a co-suspension MDIs; format: physicochemical
Description: (§1) In the context of a composition containing or providing respirable aggregates, particles, drops, etc., such as compositions described herein, the term “fine particle dose” or “FPD” refers to the dose, either in total mass or fraction of the nominal dose or metered dose, that is within a respirable range. The dose that is within the respirable range in measured in vitro to be the sum of the dose delivered at stages 3 through Micro Orifice Collector in a Next Generation Impactor operated at a flow rate of 30 l/min.
(§2) In the context of a composition containing or providing respirable aggregates, particles, drops, etc., such as compositions described herein, the term “fine particle fraction” or “FPF” refers to the proportion of the delivered material relative to the delivered dose (i.e. the amount that exits the actuator of a delivery device, such as an MDI) that is within a respirable range. The amount of delivered material within the respirable range is measured in vitro as the sum of the material delivered at stages 3 through Micro Orifice Collector in a Next Generation Impactor operated at a flow rate of 30 l/min.
The mixture is agitated to facilitate powder wetting and then transferred to a pressure vessel where the suspension is mixed. Valves comprised of 50 uL metering chambers (BK357, Bespak, King's Lynn, UK) are crimped onto fluorinated ethylene polymer (FEP) coated aluminum cans (Presspart, Blackburn, UK) and the suspension is then pressure filled through the valve.
Metered dose inhalers containing a triple co-suspension composition comprising glycopyrrolate, budesonide, and formoterol active agent particles were prepared, with each type of active agent particle being provided as a micronized, crystalline API material.

[3] = Aerodynamic particle size distribution by NGI after storage of the MDI (stability); format: physicochemical; settings: active in BGF-152a
Description: as §1, §2
The fine particle fraction (FPF) present in the delivered dose upon actuation of an MDI containing budesonide, formoterol, or glycopyrrolate active agent particles and phospholipid particles was measured following storage of the MDI under various temperature and relative humidity conditions for varied periods of time. […]

[4] = cited from earlier work; for Latent Heat @ Boiling Point: at boiling point
[5] = active in BGF-152a MDI, Example 2

SMILES: COc1ccc(CC(C)NCC(O)c2ccc(O)c(NC=O)c2)cc1.O=C(O)/C=C/C(=O)O (racemic) [FF, (±)-2-hydroxy-5-[(1RS)-1-hydroxy-2-[[(1RS)-2-(4-methoxyphenyl)-1-methylethyl]-amino]ethyl]formanilide fumarate]
- Optical diameter / size of 50% by volume of the particles (smaller than) [1]: smaller than 1.6 μm
- Optical diameter / size of 90% by volume of the particles (smaller than) [1]: smaller than 3.9 μm

SMILES: CC(C)(C)NCC(O)c1ccc(O)c(CO)c1 (stereo not drawn) [AB, α1 [(tert-butylamino)methyl]-4-hydroxy-m xylene-α,α′-diol sulfate]
- FPD, <6.4 μm (μg/act) ([2]; active in BDA-152a MDI): 28.68 ± 0.61 μg/act
- FPF, <6.4 μm (%) ([2]; active in BDA-152a MDI): 31 ± 1%
- MMAD (μm) ([2]; active in BDA-152a MDI): 4.36 ± 0.06 μm
- Optical diameter / size of 50% by volume of the particles (smaller than) [1]: smaller than 1.5 μm
- Optical diameter / size of 90% by volume of the particles (smaller than) [1]: smaller than 3.3 μm

SMILES: C[N+]1(C)CCC(OC(=O)C(O)(c2ccccc2)C2CCCC2)C1.[Br-] (centres unmarked) [GP, Pyrrolidinium, 3-((cyclopentylhydroxyphenylacetyl)oxy)-1,1-dimethyl-, bromide]
- FPD, <6.4 μm (μg/act) ([3]; 1 month 25° C./60% RH): 3.02 ± 0.08 μg/act
- FPF, <6.4 μm (%) ([3]; 1 month 25° C./60% RH): 45 ± 1%
- FPD, <6.4 μm (μg/act) ([3]; 1 month 40° C./75% RH): 3.18 ± 0.15 μg/act
- FPF, <6.4 μm (%) ([3]; 1 month 40° C./75% RH): 46 ± 1%
- FPD, <6.4 μm (μg/act) ([3]; 3 month 25° C./60% RH): 3.42 ± 0.08 μg/act
- FPF, <6.4 μm (%) ([3]; 3 month 25° C./60% RH): 49 ± 1%
- FPD, <6.4 μm (μg/act) ([3]; 3 month 40° C./75% RH): 3.62 ± 0.08 μg/act
- FPF, <6.4 μm (%) ([3]; 3 month 40° C./75% RH): 50 ± 1%
- FPD, <6.4 μm (μg/act) ([3]; 6 month 25° C./60% RH): 3.50 ± 0.07 μg/act
- FPF, <6.4 μm (%) ([3]; 6 month 25° C./60% RH): 50 ± 1%
- FPD, <6.4 μm (μg/act) ([3]; 6 month 40° C./75% RH): 3.44 ± 0.27 μg/act
- FPF, <6.4 μm (%) ([3]; 6 month 40° C./75% RH): 49 ± 2%
- FPD, <6.4 μm (μg/act) ([3]; 12 month 25° C./60% RH): 3.46 ± 0.05 μg/act
- FPF, <6.4 μm (%) ([3]; 12 month 25° C./60% RH): 48 ± 2%
- FPD, <6.4 μm (μg/act) ([3]; Initial): 3.18 ± 0.16 μg/act
- FPF, <6.4 μm (%) ([3]; Initial): 47 ± 2%
- FPD, <6.4 μm (μg/act) [2, 5]: 3.69 ± 0.36 μg/act
- FPF, <6.4 μm (%) [2, 5]: 49 ± 3%
- FPD, <6.4 μm (μg/act) ([2]; active in GFF-152a MDI): 3.56 ± 0.18 μg/act
- FPF, <6.4 μm (%) ([2]; active in GFF-152a MDI): 48 ± 1%
- MMAD (μm) ([2]; active in GFF-152a MDI): 3.43 ± 0.07 μm
- Optical diameter / size of 50% by volume of the particles (smaller than) [1]: smaller than 2.1 μm
- Optical diameter / size of 90% by volume of the particles (smaller than) [1]: smaller than 5 μm

SMILES: FCC(F)(F)F [HFA-134a, 1,1,1,2-tetrafluoroethane]
- Liquid Density @ 20° C. [4]: 1.23 g/mL
- Liquid Viscosity @ 20° C. [4]: 0.211 mPa · S
- Surface Tension @ 20° C. [4]: 8.09 mN/m
- Vapor Pressure @ 20° C. [4]: 570 kPa
- Latent Heat @ 25° C. [4]: 177.7 kJ/kg
- Water Solubility in Propellant ([4]; @25): 1100@25 ppm
- Latent Heat @ Boiling Point [4]: 216.7 kJ/kg

SMILES: FC(C(F)(F)F)C(F)(F)F [HFA-227ea, 1,1,1,2,3,3,3-Heptafluoropropane]
- Liquid Density @ 20° C. [4]: 1.41 g/mL
- Liquid Viscosity @ 20° C. [4]: 0.267 mPa · S
- Surface Tension @ 20° C. [4]: 7.50 mN/m
- Vapor Pressure @ 20° C. [4]: 390 kPa
- Latent Heat @ 25° C. [4]: 110.97 kJ/kg
- Water Solubility in Propellant ([4]; @25): 610@25 ppm
- Latent Heat @ Boiling Point [4]: 131.4 kJ/kg

SMILES: CC(F)F [HFC-152a, 1,1-Difluoroethane]
- Liquid Density @ 20° C. [4]: 0.91 g/mL
- Liquid Viscosity @ 20° C. [4]: 0.171 mPa · S
- Surface Tension @ 20° C. [4]: 10.4 mN/m
- Vapor Pressure @ 20° C. [4]: 510 kPa
- Latent Heat @ 25° C. [4]: 279.1 kJ/kg
- Water Solubility in Propellant ([4]; @25): 2100@25 ppm
- Latent Heat @ Boiling Point [4]: 318.4 kJ/kg

SMILES: C=C(F)C(F)(F)F [HFO-1234yf, 2,3,3,3-Tetrafluoropropene]
- Liquid Density @ 20° C. [4]: 1.11 g/mL
- Liquid Viscosity @ 20° C. [4]: 0.164 mPa · S
- Surface Tension @ 20° C. [4]: 6.8 mN/m
- Vapor Pressure @ 20° C. [4]: 592 kPa
- Latent Heat @ 25° C. [4]: 145.4 kJ/kg
- Water Solubility in Propellant ([4]; @24): 200@24 ppm
- Latent Heat @ Boiling Point [4]: 180.5 kJ/kg

SMILES: FC=CC(F)(F)F [HFO-1234ze]
- Liquid Density @ 20° C. [4]: 1.18 g/mL
- Liquid Viscosity @ 20° C. [4]: 0.206 mPa · S
- Surface Tension @ 20° C. [4]: 8.9 mN/m
- Vapor Pressure @ 20° C. [4]: 427 kPa
- Latent Heat @ 25° C. [4]: 166.8 kJ/kg
- Water Solubility in Propellant ([4]; @20): 225@20 ppm
- Latent Heat @ Boiling Point [4]: 195.43 kJ/kg
